The values that follow come from US9156790B2, “Anticancer P21-activated kinase inhibitors” (Ohio State Innovation Foundation, priority 2013, dated 2015).

The target of one experiment is T1, Recombinant active PAK 1 (Homo sapiens, UniProt Q13153).
T1 construct: purchased Calbiochem
The experiment is described as follows: In vitro PAK1 kinase assay (MBP substrate, 32P-ATP). The format is biochemical. The following applies: for Inhibition of PAK1 kinase activity in initial screen: 7.5 μM inhibitor, 2.5 μM ATP, myelin basic protein substrate (FIG. 2A); for Relative PAK1 inhibitory potency (comparison in words): in vitro kinase assay, comparison between compounds / with OSU-03012. As for the experimental part: Recombinant active PAK 1 (Calbiochem) was incubated with selected derivatives or 0.1% DMSO in the presence or absence of MBP (Sigma) in a 1× kinase buffer (Cell Signaling). The addition of [γ-32P]-ATP (2.5 μCi/reaction) (Perkin Elmer) started the reaction, which was incubated at 30° C. for 30 minutes. The reaction was terminated by the addition of EDTA. Results were obtained after visualization of ^32P-labeled MBP after separation on 12% polyacrylamide gels and autoradiography. For the Lineweaver-Burk plot analysis, the ratio of radioactive ATP to nonradioactive ATP was not altered. The PAK1 kinase activities are the means of three independent experiments quantified using P81 phosphocellulose paper by a scintillation counter after three washes with 0.75% phosphoric acid.
Screening of OSU-03012 Derivatives to Identify PAK1 Inhibitors. The 17 derivatives along with OSU-03012, each at 7.5 μM, were screened for their ability to inhibit PAK1 activity by in vitro PAK1 kinase assay. The dose was chosen (above the IC50 of OSU-03012) to allow OSU-03012 to serve as a robust positive control. The PAK1 kinase assay was performed using recombinant active PAK1 with myelin basic protein as substrate in the presence of 2.5 μM ATP and 7.5 μM of respective inhibitors.
To further investigate these six compounds, dose-response studies on PAK1 activity were performed by using PAK1 kinase assay. […] We next questioned whether compounds 4 or 15 inhibited PAK1 in an ATP competitive manner as their parent compound OSU-03012.

In the next experiment the test system is BCPAP cells. In words: MTT cell viability assay, BCPAP. Format: cell-based, Human. The following applies: 72-hours of exposure, 1% FBS, mean±standard deviation (n=3), read-out: IC50 for reducing viability of BCPAP cells versus DMSO control. The text has this:
(§1) Human thyroid cancer BCPAP, TPC1, and FTC133 cell lines were the generous gifts of Drs. Rebecca Schweppe and Bryan Haugen (University of Colorado Denver) (Schweppe et al., The Journal of clinical endocrinology and metabolism 83:4331-4341 (2008)) with permission from the following originating laboratories: BCPAP—Dr. Fabien, Centre Hospitalier Lyon-Sud, France (Fabien et al., Cancer 73:2206-2212 (1994)); TPC1—Dr. Sato, Kanazawa University, Japan (Tanaka et al., Virology 161:62-411 (1987)); and FTC133—Dr. Goretzki, University of Leipzig, Germany (Goretzki et al., Recent Results Cancer Res 118:48-63 (1990)). The obtained cell lines were confirmed for identity by DNA fingerprinting. BCPAP was grown in RPMI 1640 medium (Life Technologies Co., Carlsbad, Calif.) while FTC133 and TPC1 were grown in DMEM (Life Technologies Co.), both supplemented with 10% fetal bovine serum (FBS) and NEAA unless as noted for experiments.
(§2) The effect of OSU-03012 and its derivatives on cell viability was assessed by using the 3-(4,5-dimethylthiazol-2-yl)-2,5-diphenyl-2H-tetrazolium bromide (MTT) assay. Three replicates were performed in each individual experiment, and experiments were repeated at least three separate times. Cells were grown in 96-well plates for 24 hours and were exposed to various concentrations of drugs dissolved in DMSO (final concentration 0.1%) in RPMI 1640 or DMEM containing 1% FBS for 72 hours. 10 μL of 0.5 mg/ml MTT was added to each well and cells were incubated in CO2 at 37° C. for 2 hours. Supernatants were removed from the wells, the reduced MTT dye was solubilized in 100 μL of solution C (12 ml of 1N HCl in 300 mL of isopropanol), and absorbance at 570 nm was determined on a microplate reader.
(§3) We assessed the ability of the compounds to reduce cell viability in vitro by MTT assay after 72 hours of continuous exposure. Results are shown in Table 1 and are depicted as the IC50 vs. simultaneously performed DMSO control.
(§4) ^aThe reported IC50 values are concentrations at which BCPAP, FTC133 and TPC1 cell viability by MTT assays 50% of DMSO control after 72-hours of exposure. Data are presented as mean±standard deviation (n=3). PAK and PDK1 Selectivity In Vivo
A general note: Tetrazolium assays rely on reduction of a dye to a coloured formazan, in cell work by metabolically active cells.

Another experiment relates to TPC1 cells. In words: MTT cell viability assay, TPC1. Conditions: 1% FBS, mean±standard deviation (n=3), read-out: IC50 for reducing viability of TPC1 cells versus DMSO control. Format: cell-based, Human.
Description: as §1, §2, §3, §4

Another experiment relates to FTC133 cells. The experiment is described as follows: MTT cell viability assay, FTC133. Format: cell-based, Human. The following applies: 1% FBS, mean±standard deviation (n=3), read-out: IC50 for reducing viability of FTC133 cells versus DMSO control.
Description: as §1, §2, §3, §4

[1] abbreviates: Homo sapiens, TPC1, 72-hours of exposure.
Where [2] appears, read: Homo sapiens, FTC-133, 72-hours of exposure.

Where two headings read alike, the source gives them in different places. Some results are limits rather than exact numbers.

T1 sequence (Q13153 whole entry): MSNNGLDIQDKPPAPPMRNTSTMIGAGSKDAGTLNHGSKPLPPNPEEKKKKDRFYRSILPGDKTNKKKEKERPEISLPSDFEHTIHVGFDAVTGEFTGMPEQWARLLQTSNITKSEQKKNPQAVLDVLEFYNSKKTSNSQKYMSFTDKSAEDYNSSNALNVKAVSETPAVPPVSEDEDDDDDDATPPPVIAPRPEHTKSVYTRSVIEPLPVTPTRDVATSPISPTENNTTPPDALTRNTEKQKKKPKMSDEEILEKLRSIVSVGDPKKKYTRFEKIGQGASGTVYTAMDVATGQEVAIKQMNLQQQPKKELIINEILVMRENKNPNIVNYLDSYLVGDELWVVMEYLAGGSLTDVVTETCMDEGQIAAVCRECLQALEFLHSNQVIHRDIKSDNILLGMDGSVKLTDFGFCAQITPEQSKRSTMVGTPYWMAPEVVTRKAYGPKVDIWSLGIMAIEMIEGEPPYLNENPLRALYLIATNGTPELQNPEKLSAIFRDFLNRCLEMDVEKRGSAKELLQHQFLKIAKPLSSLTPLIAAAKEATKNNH

The term IC50 denotes the concentration at which inhibition is half-maximal. Take `NCC(=O)Nc1ccc(-n2nc(C(=O)NCc3ccccc3)cc2-c2ccc3ccc4ccccc4c3c2)cc1` [Compound 1, 1-(4-(2-Aminoacetamido)phenyl)-N-benzyl-5-(phenanthren-3-yl)-1H-pyrazole-3-carboxamide]: at Recombinant active PAK 1, the “Inhibition of PAK1 kinase activity in initial screen” value (“Inhibition of PAK1 kinase activity” below) is reported as “inhibited PAK1 kinase activity”. The IC50 is 2.01 ± 0.59 µM in the experiment with BCPAP cells (Homo sapiens, BCPAP); 2.6 ± 0.81 µM with TPC1 cells (setting [1]); 4.78 ± 4.53 µM in the experiment with FTC133 cells (setting [2]).

For the compound “1-(4-Aminophenyl)-5-(phenanthren-2-yl)-1H-pyrazol-3-yl) methanol [Compound 6]”, on Recombinant active PAK 1, the “Relative PAK1 inhibitory potency (comparison in words)” value (from here on “Relative PAK1 inhibitory potency”) is given as “did not show any activity”. Further, the IC50 in the experiment on BCPAP cells, in the experiment with TPC1 cells (72-hours of exposure) and in the experiment with FTC133 cells (72-hours of exposure) was more than 10 µM each time.

Consider `CNC(=O)c1cc(-c2ccc3ccc4ccccc4c3c2)n(-c2ccc(NC(=O)CCN)cc2)n1` [Compound 13, 1-(4-(3-Aminopropanamido)phenyl)-N-methyl-5-(phenanthren-3-yl)-1H-pyrazole-3-carboxamide], for which the “Relative PAK1 inhibitory potency” value at Recombinant active PAK 1 is given as “more potent”. The concentration for half-maximal inhibition (IC50) with BCPAP cells (Homo sapiens, BCPAP) is 2.76 ± 1.56 µM; in the experiment with TPC1 cells (setting [1]), 3.62 ± 0.42 µM; with FTC133 cells (setting [2]), 4.95 ± 3.21 µM.

In the case of `CNC(=O)c1cc(-c2ccc3ccc4ccccc4c3c2)n(-c2ccc(N)cc2)n1` [Compound 17, 1-(4-Aminophenyl)-N-methyl-5-(phenanthren-3-yl)-1H-pyrazole-3-carboxamide], the “Relative PAK1 inhibitory potency” value on Recombinant active PAK 1 is recorded as “did not show any activity”. The concentration for half-maximal inhibition (IC50) in the experiment with BCPAP cells (Homo sapiens, BCPAP) was more than 10 µM; in the experiment with TPC1 cells (setting [1]), 8.96 ± 1.17 µM; in the experiment on FTC133 cells (setting [2]) it was more than 10 µM.

Consider `CNC(=O)c1cc(-c2ccc3c(ccc4ccccc43)c2)n(-c2ccc(NC(=O)CCN)cc2)n1` [Compound 14, 1-(4-(3-aminopropanamido)phenyl)-N-methyl-5-(phenanthren-2-yl)-1 μl-pyrazole-3-carboxamide], for which the “Relative PAK1 inhibitory potency” value on Recombinant active PAK 1 is given as “more potent”. Besides, the values for the IC50 with BCPAP cells, with TPC1 cells (72-hours of exposure) and in the experiment on FTC133 cells (72-hours of exposure) were 3.32 ± 1.09 µM, 5.98 ± 0.28 µM and 5.42 ± 1.56 µM, respectively.

Consider `CNC(=O)c1cc(-c2ccc3ccc4ccccc4c3c2)n(-c2ccc(NC(=O)CN)cc2)n1` [Compound 7, 1-(4-(2-aminoacetamido)phenyl)-N-methyl-5-(phenanthren-3-yl)-1H-pyrazole-3-carboxamide], for which the IC50 worked out at 3.71 ± 1.82 µM with BCPAP cells (Homo sapiens, BCPAP); 3.67 ± 1.52 µM in the experiment with TPC1 cells (setting [1]); 4.53 ± 2.57 µM in the experiment on FTC133 cells (setting [2]).

In the case of `CNC(=O)c1cc(-c2ccc3c(ccc4ccccc43)c2)n(-c2ccc(N)cc2)n1` [Compound 5, 1-(4-Aminophenyl)-N-methyl-5-(phenanthren-2-yl)-1H-pyrazole-3-carboxamide], the “Relative PAK1 inhibitory potency” value at Recombinant active PAK 1 is “did not show any activity”. The IC50 with BCPAP cells (Homo sapiens, BCPAP) is more than 10 µM; with TPC1 cells (setting [1]), more than 10 µM; in the experiment with FTC133 cells (setting [2]) it was 5.03 ± 0.25 µM.

With `NCC(=O)Nc1ccc(-n2nc(CO)cc2-c2ccc3c(ccc4ccccc43)c2)cc1` [Compound 10, 2-Amino-N-(4-(3-(hydroxymethyl)-5-(phenanthren-2-yl)-1H-pyrazol-1-yl)phenyl)-acetamide], the “Inhibition of PAK1 kinase activity” value at Recombinant active PAK 1 is given as “inhibited PAK1 kinase activity”. Further, the “Relative PAK1 inhibitory potency” value on Recombinant active PAK 1 was “more potent activity”. Further, the IC50 was 6.53 ± 2.16 µM with BCPAP cells (Homo sapiens, BCPAP); 7.39 ± 1.9 µM in the experiment with TPC1 cells (setting [1]); 8.95 ± 0.57 µM in the experiment with FTC133 cells (setting [2]).

As for `NCC(=O)Nc1ccc(-n2nc(C(F)(F)F)cc2-c2ccc3ccc4ccccc4c3c2)cc1` [Compound 3, 2-Amino-N-(4-(5-(phenanthren-3-yl)-3-(trifluoromethyl)-1H-pyrazol-1-yl)phenyl)-acetamide], the “Inhibition of PAK1 kinase activity” value at Recombinant active PAK 1 is “inhibited PAK1 kinase activity”. Moreover, the “Relative PAK1 inhibitory potency” value on Recombinant active PAK 1 is “slightly more potent”. Further, the IC50 with BCPAP cells (Homo sapiens, BCPAP) is 2.34 ± 0.27 µM; with TPC1 cells (setting [1]) it was 3.17 ± 1.29 µM; in the experiment with FTC133 cells (setting [2]), 5.32 ± 4.05 µM.

`Nc1ccc(-n2nc(CO)cc2-c2ccc3ccc4ccccc4c3c2)cc1` [Compound 16, (1-(4-Aminophenyl)-5-(phenanthren-3-yl)-1H-pyrazol-3-yl)methanol]: on Recombinant active PAK 1, the “Relative PAK1 inhibitory potency” value was “did not show any activity”. The IC50 is more than 10 µM in the experiment with BCPAP cells (Homo sapiens, BCPAP); 4.32 ± 2.18 µM with TPC1 cells (setting [1]); more than 10 µM in the experiment on FTC133 cells (setting [2]).

In the case of `CCNC(=O)c1cc(-c2ccc3ccc4ccccc4c3c2)n(-c2ccc(NC(=O)CN)cc2)n1` [Compound 2, 1-(4-(2-aminoacetamido)phenyl)-N-ethyl-5-(phenanthren-3-yl)-1H-pyrazole-3-carboxamide], the IC50 was found to be 2.67 ± 0.82 µM in the experiment with BCPAP cells (Homo sapiens, BCPAP); 1.81 ± 1.24 µM in the experiment on TPC1 cells (setting [1]); 4.83 ± 4.47 µM in the experiment with FTC133 cells (setting [2]).

As for `CNC(=O)c1cc(-c2ccc3c(ccc4ccccc43)c2)n(-c2ccc(NC(=O)CN)cc2)n1` [Compound 8, 1-(4-(2-Aminoacetamido)phenyl)-N-methyl-5-(phenanthren-2-yl)-1H-pyrazole-3-carboxamide], the 50% inhibitory concentration (IC50) in the experiment on BCPAP cells (Homo sapiens, BCPAP) was 2.9 ± 2.35 µM; in the experiment on TPC1 cells (setting [1]) it was 4.67 ± 4.16 µM; in the experiment on FTC133 cells (setting [2]), 3.08 ± 1.63 µM.

For `NCCC(=O)Nc1ccc(-n2nc(CO)cc2-c2ccc3c(ccc4ccccc43)c2)cc1` [Compound 12, 3-Amino-N-(4-(3-(hydroxymethyl)-5-(phenanthren-2-yl)-1H-pyrazol-1-yl)phenyl)-propanamide], the IC50 in the experiment on BCPAP cells (Homo sapiens, BCPAP) amounted to 3.76 ± 1.2 µM; in the experiment on TPC1 cells (setting [1]), 5.83 ± 1.73 µM; in the experiment with FTC133 cells (setting [2]), 7.55 ± 2.19 µM.

On to `NCC(=O)Nc1ccc(-n2nc(CO)cc2-c2ccc3ccc4ccccc4c3c2)cc1` [Compound 9, 2-Amino-N-(4-(3-(hydroxymethyl)-5-(phenanthren-3-yl)-1H-pyrazol-1-yl)phenyl)-acetamide], for which the “Relative PAK1 inhibitory potency” value at Recombinant active PAK 1 is given as “did not show any improvement”. The IC50 amounted to 4.04 ± 1.38 µM in the experiment on BCPAP cells (Homo sapiens, BCPAP); 2.42 ± 0.13 µM in the experiment on TPC1 cells (setting [1]); 4.75 ± 2.47 µM in the experiment with FTC133 cells (setting [2]).
